Results from patent US20090298752A1, “APLIDINE TREATMENT OF CANCERS” (PHARMA MAR, S.A., priority 1999, published 2009).
“Also recorded” adds a separate entry of the source.

How the values were obtained:
ornithine decarboxylase = molecular target: T1, ornithine decarboxylase (Homo sapiens, UniProt P11926); conditions: all three cell lines; cited from earlier work
T1 construct: endogenous in cells; host or cells: CT-1, CT-2 and HT-29 colon cell lines

kidney (NRK-52E) cells = assay: CellTiter96 (MTS) in vitro cytotoxicity assay; format: cell-based
From the text: (§1) In fact, the dose limiting toxicity in humans is skeletal muscle atrophy.

skeletal muscle (L8) = assay: CellTiter96 (MTS) in vitro cytotoxicity assay; format: cell-based
From the text: as §1

cardiac H9 c2 (2-1) = assay: CellTiter96 (MTS) in vitro cytotoxicity assay; format: cell-based
From the text: as §1

[1] = system: myelogenous stem cells (FDC-P1); assay: CellTiter96 (MTS) in vitro cytotoxicity assay; format: cell-based
From the text: as §1

liver (AML-12) = assay: CellTiter96 (MTS) in vitro cytotoxicity assay; format: cell-based
From the text: as §1

advanced solid tumours = assay: Phase I, 24 h infusion weekly x3 q4wk: antitumour activity; format: in vivo, human
Procedure: In this study 16 patients were treated. patients characteristics: median age 55 years, median PS 1, male/female 11/5, tumour types being as follows: Head and neck 5, kidney 2, colon 3, rectum 2, sarcoma 1 and melanoma 3, all pre-treated with chemotherapy (median 2 lines).
Aplidine was administered as a 24 h infusion at the following dose levels (Dls): 133 (3 pts), 266 (3 pts), 532 (3 pts), 1000 (3 pts), 2000 (3 pts) and 3000 (1 pt) mcg/m^2/wk×3 every 28 days.
To date, 25 pts (median age 58 yrs, median ECOG 1) with advanced, previously treated solid tumours or lymphoma have been treated in this phase I study. Using a schedule of APL 24 h weekly×3 followed by 1 wk rest, the following dose levels have been tested: 133 (n-3 pts), 266 (3), 532 (3), 1000 (3), 2000 (3), 4500 (3) and 3750 μg/m^2/wk (3). With 60 cycles (180 infusions) administered, all pts are evaluable for toxicity. The Maximum Tolerated Dose was 4500 μg/m^2/wk×3 with grade (G) 3 muscular toxicity (biopsy proven type II muscular atrophy). G4 CPK and G3 transaminitis the dose-limiting toxicities in 2 or 4 pts. […] All pts have been sampled for PK analysis by LC/MS/MS. […] As expected, neuromuscular toxicity is dose-limiting. The possible recommended dose of 3750 μg/m^2/wk×3 is being assessed.
A phase I trial was performed using 24 hour infusion weekly×3 followed by 1 wk rest. 32 patients (median age 58 yrs, median ECOG 1) with advanced, previously treated solid tumours have been treated. They have received 64 courses (median/pt: 2 (1-6)) across 8 dose levels: 133 (3 pts), 266 (3 pts), 532 (3 pts), 1000 (3 pts), 2000 (3 pts), 3000 (3 pts), 4500 (4 pts) and 3750 mcg/m^2/wk (10 pts). 2 out of 3 evaluable patients had DLT at 4500 mcg/m^2/wk: grade (G) 4 reversible neuromuscular toxicity (biopsy prevent type II muscular atrophy) and G4 CK increase (1 pt), and transient G3 transaminitis (1 pt). Other toxicities included G 1-2 malaise (most patients treated at ≧3000 mcg/m^2/wk), muscle cramps, G 1-2 emesis (responsive to antiemetics) and injection site reaction (very common and concentration-dependent). All patients have been sampled for PK analysis by a LC/MS/MS method. Pharmacokinetics are linear and the profiles fit a 2 compartment open model. […] Maintained plasma levels >1 ng/ml (active in vitro) were obtained at doses ≧3000 mcg/m^2. […] Four additional patients had minor responses or stable disease for >4 months. […] The recommended dose for future trials, 3750 mcg/m^2/wk×3, administered through a central vein catheter, is feasible and associated with mild toxicity.

MOLT-4 cells = assay: activity of aplidine on MOLT-4 cells with VEGF added; format: cell-based, human; conditions: VEGF 10 ng/ml, 10% FCS, low concentrations of aplidine
[2] = system: advanced solid tumours and lymphoma; assay: Phase I, 1 h weekly infusion x3 q4wk: antitumour activity; format: in vivo, human
From the text: Adult patients with advanced disease, PS<3, and appropriate organ function are considered eligible; patients receive aplidine wk×3/q^4 wks. 24 solid tumour patients have been entered: median (m) age 55 y, m ECOG=1, 15/24 patients treated with =>2 treatment cycles. Seven dose levels (DL) from 133 mcg/m^2/wk to 2700 mcg/m^2/wk have been assessed: 102 infusions are evaluable for toxicity (tox). […] At 2700 mcg/m^2/wk (4 pts), 1 had G3 hiperbilirrubinemia that has been considered to be dose limiting and therefore 2700 mcg/m^2/wk DL is being expanded. […] Plasma levels >1 ng/ml 24 hours after infusion are reachable form 1800 mcg/m^2/wk. […] Aplidine appears to be clinically feasible at pharmacologically appropriate dose levels.
Aplidine was administered as a 1 hour weekly×3 every four weeks

B 16 melanoma = conditions: mice; cited from earlier work

T1 sequence (P11926 whole entry): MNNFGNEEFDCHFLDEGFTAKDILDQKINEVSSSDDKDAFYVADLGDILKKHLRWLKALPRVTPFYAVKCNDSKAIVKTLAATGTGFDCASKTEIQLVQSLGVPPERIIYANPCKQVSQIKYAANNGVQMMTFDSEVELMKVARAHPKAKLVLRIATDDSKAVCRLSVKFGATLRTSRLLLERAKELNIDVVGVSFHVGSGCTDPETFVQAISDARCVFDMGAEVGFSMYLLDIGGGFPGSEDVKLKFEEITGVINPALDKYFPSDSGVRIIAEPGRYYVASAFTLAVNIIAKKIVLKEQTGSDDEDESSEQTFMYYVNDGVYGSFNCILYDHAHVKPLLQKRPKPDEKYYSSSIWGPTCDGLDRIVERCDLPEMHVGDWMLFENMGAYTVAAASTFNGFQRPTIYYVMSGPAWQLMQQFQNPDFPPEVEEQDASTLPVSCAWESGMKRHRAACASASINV

## aplidine
Ornithine decarboxylase
  ornithine decarboxylase activity: decreased ornithine decarboxylase activity
Kidney (NRK-52E) cells
  LD50: 0.1 nM
Skeletal muscle (L8)
  LD50: 0.1 nM
Cardiac H9 c2 (2-1)
  LD50: 1 µM
[1]
  LD50: 0.1 µM
Liver (AML-12)
  LD50: 1 µM
Advanced solid tumours; DL 532 mcg/m^2/w, 1 patient
  clinical response, pre-treated advanced melanoma: clinical improvement
Advanced solid tumours; decrease in CEA marker
  response, Patient #034, thyroid medullary carcinoma: Clinical improvement and SD at lung lymphangitis
Advanced solid tumours; four additional patients
  duration of minor responses or stable disease: > 4 months
Advanced solid tumours; highly pre-treated
  response, Patient #008, non measurable metastatic melanoma: clinical improvement and tumour shrinkage
Advanced solid tumours; in vivo
  tumour shrinkage, Patient #032, renal carcinoma: 20%
Advanced solid tumours; one patient
  duration of clinical improvement, advanced melanoma resistant to DTIC/interferon: > 30 weeks
MOLT-4 cells
  effect of added VEGF on activity of aplidine: slightly reduced the activity of low concentrations of aplidine; also recorded: partially abolish the activity of aplidine
[2]; 1200 μg/m^2 weekly
  response, Pat #16, gastric adenocarcinoma resistant to FAM: Slight improvement in the lymph node masses
[2]; 1 patient at 1200 mcg/m^2
  activity in gastric cancer: Early hints of activity
[2]; 2700 mcg/m^2/wk DL
  response, advanced renal cancer resistant to VBL-IFN: ongoing objective response
[2]; after 2 infusions at 2700 μg/m^2 weekly
  response, Pat #23, kidney carcinoma with pulmonary nodules: Partial remission in lung nodules
[2]; after 3 infusion
  response, Pat #29, kidney carcinoma: Clinical improvement
B 16 melanoma
  activity against implanted tumour: active
